The values that follow come from patent US20250171511A1, “ANTIVIRAL PEPTIDES AND METHODS OF USE THEREOF” (Versitech Limited, priority 2021, published 2025).

Where no end group is shown, it is not given here. 4MPA = not defined here

The subject of the test is SARS-CoV-2 Delta variant. The format is in vivo, hamster. The settings on record: 6 h exposure, 4 hamsters.

For the substance “GAICHPVFCPRRYKQIGTCGLPGTKCCKKP-4MPA (cysteine pairing not given here; reading uncertain; also: printed as GAICHPVFCPRRYKQIGTCGLPGTKCCKKP-4MPA) [Peptide 4H30]”, the “transmission to naïve contact hamsters” value is 25%.
